# ChEMBL document CHEMBL3046497, “Synthesis and antitubercular activity of novel pyrazolequinazolinone hybrid analogs” (2013)
# Tests used:
# Format in all cases: functional
# [1] = system: Mycobacterium tuberculosis; assay: Antitubercular activity against Mycobacterium tuberculosis H37Rv assessed as growth inhibition by primary screen assay
# [2] = system: Mycobacterium tuberculosis; assay: Antitubercular activity against Mycobacterium tuberculosis H37Rv assessed as growth inhibition at >6.25 ug/ml by primary screen assay
# [3] = system: Mycobacterium tuberculosis; assay: Antitubercular activity against Mycobacterium tuberculosis H37Rv assessed as growth inhibition by secondary screen assay
# [4] = system: Mycobacterium tuberculosis; assay: Antitubercular activity against Mycobacterium tuberculosis H37Rv assessed as growth inhibition at <6.25 ug/ml by primary screen assay
Structure (SMILES),MIC [1] [µg/mL],inhibition (INH) [2] [%],MIC [3] [µg/mL],inhibition (INH) [4] [%]
Cc1ccc(-n2cc(/C=N/n3c(-c4cccc(Cl)c4)nc4ccccc4c3=O)c(-c3ccncc3)n2)cc1,> 6.25,68,–,–
Cc1ccc(-n2cc(/C=N/n3c(-c4ccc([N+](=O)[O-])cc4)nc4ccccc4c3=O)c(-c3ccncc3)n2)cc1,> 6.25,67,–,–
NNC(=O)c1ccncc1 [ISONIAZID],< 6.25,–,0.125,–
Cc1ccc(-n2cc(/C=N/n3c(-c4cccc([N+](=O)[O-])c4)nc4ccccc4c3=O)c(-c3ccncc3)n2)cc1,< 6.25,–,< 3.12,92
Cc1ccc(-n2cc(/C=N/n3c(-c4ccc(Cl)cc4)nc4ccccc4c3=O)c(-c3ccncc3)n2)cc1,< 6.25,–,< 3.12,90
Cc1ccc(-n2cc(/C=N/n3c(-c4cccc(C)c4)nc4ccccc4c3=O)c(-c3ccncc3)n2)cc1,> 6.25,70,–,–
COc1ccc(-c2nc3ccccc3c(=O)n2/N=C/c2cn(-c3ccc(C)cc3)nc2-c2ccncc2)cc1,> 6.25,59,–,–
COc1ccccc1-c1nc2ccccc2c(=O)n1/N=C/c1cn(-c2ccc(C)cc2)nc1-c1ccncc1,< 6.25,–,< 3.12,93
COc1cccc(-c2nc3ccccc3c(=O)n2/N=C/c2cn(-c3ccc(C)cc3)nc2-c2ccncc2)c1,> 6.25,64,–,–
Cc1ccc(-n2cc(/C=N/n3c(-c4ccccc4Cl)nc4ccccc4c3=O)c(-c3ccncc3)n2)cc1,< 6.25,–,< 3.12,96
Cc1ccc(-c2nc3ccccc3c(=O)n2/N=C/c2cn(-c3ccc(C)cc3)nc2-c2ccncc2)cc1,> 6.25,67,–,–
Cc1ccc(-n2cc(/C=N/n3c(-c4ccccc4[N+](=O)[O-])nc4ccccc4c3=O)c(-c3ccncc3)n2)cc1,> 6.25,73,–,–
Cc1ccc(-n2cc(/C=N/n3c(-c4ccccc4C)nc4ccccc4c3=O)c(-c3ccncc3)n2)cc1,< 6.25,–,< 3.12,94
